From patent US6933277B2, “Prevention of fetal alcohol syndrome and neuronal cell death with ADNF polypeptides” (The United States of America as represented by the …, priority 1999, dated 2005)
No end group written: not given here.

Columns and labels:
[1] = tested on: model for FAS, C57B 1/6J mouse strain; test: Fetal demise at E18 in mouse model for FAS (alcohol on E8, peptide pretreatment); type: in vivo; conditions: for percentage of fetal demises: E18, pretreatment 30 min prior to alcohol (25% ethyl alcohol i.p., 0.030 ml/g) on E8, NAPVSIPQ 20 μg, SALLRSIPA 20 μg, VIP 1 μg, combination 20 μg+20 μg; for alcohol toxicity as measured by fetal demises and weight (summary): summary of fetal demises and weights (fetal and fetal brain) at E18
Method: (§1) C57-B16J female mice (Jackson Labs) were kept under a 12 h light, 12 h dark regimen with food and water available at all times. The mice received humane animal care in compliance with the “Guideline for Care and Use of Experimental Animals.” Six week old females (21-24 grams) were mated with C57-B 16J males for 4 h. The presence of a vaginal plug was considered day 0 pregnancy.
(§2) A published well-delineated model for FAS was followed (Webster, W. S., et al., Neurobehav Tox, 2:227-34 (1980)). Animals were injected (intraperitoneal) on E8 with […] in saline (v/v) or vehicle alone at 0.030 ml/g body weight. Pretreatment with VIP and ADNF peptides (NAPVSIPQ (SEQ ID NO:2), SALLRSIPA (SEQ ID NO:1), NAPVSIPQ (SEQ ID NO:2)+SALLRSIPA (SEQ ID NO:1)) were given 30 min prior to alcohol. Dosages of the neuropeptides were NAPVSIPQ (SEQ ID NO:2) (20 μg) and (40 μg), SALLRSIPA (SEQ ID NO:1) (20 μg), NAPVSIPQ (SEQ ID NO:2) (20 μg)+(20 μg); VIP (1 μg). A NAPVSIPQ (SEQ ID NO:2)+SALLRSIPA (SEQ ID NO:1) control group without alcohol was studied. NAPVSIPQ (SEQ ID NO:2) was diluted in 50 μl DMSO and diluted in filtered Dulbecco's phosphate buffered saline (DPBS). SAL was dissolved and diluted in filtered DPBS. VIP was dissolved in […] glacial acetic acid and diluted in HPLC water and DPBS. Since the animals receiving alcohol were incapacitated for approximately 6 h following injection, food and water were withheld from all groups for the initial 6 hours after injection, to allow accurate assessment of fetal weights.
(§3) At E18 (embryonic gestation day 18), the number of live and demised fetuses was determined. Fetal weights and fetal brain weights were obtained for each fetus in the litter. The mean fetal weights were determined for each mother and this was used for statistical analysis.
(§4) The mean litter pup and fetal brain weight was calculated, with the litter mean used for all statistical analysis. Percent demises were calculated by dividing the number of demises by the total number of fetuses (live plus demises). Statistical analysis included ANOVA for continuous variables, Mann-Whitney U for nonparametic data, Chi square for categorical variables or Fisher's exact test where appropriate [Statview 4.5 (Abacus Concepts, Inc., Berkeley, Calif.)] with p<0.05 considered significant. Results are presented as mean±standard error unless specified.
(§5) The C57B 1/6J mouse strain provided a well-characterized model for FAS. Previous work with this strain has defined the effects of dosage and embryonic timing on maternal serum alcohol levels and embryonic effects (Webster et al., Neurobehav Tox, 2:227-34 (1980)), incorporated herein by reference. Intra-peritoneal treatment allowed for defined and reproducible dosages. […] The mice were injected with 25% ethyl alcohol in saline (v/v) or vehicle alone at 0.030 ml/g maternal body weight at 0900 on E8. Pretreatment with the study peptides was given 30 minutes prior to alcohol administration. […]
To assess the protective effects of the ADNF peptides in the most severe form of stress, the number of fetal death was determined. […]

[2] = tested on: model for FAS, C57B 1/6J mouse strain; test: Fetal weights and fetal brain weights at E18 in mouse model for FAS; type: in vivo; conditions: pretreatment 30 min prior to alcohol on E8; for fetal weights (alcohol-induced growth restriction): NAPVSIPQ 20 μg, VIP 1 μg
Method: as §1, §2, §3, §4, §5
In the surviving E18 fetuses, fetal and fetal brain weights were evaluated to assess the protective effects of the ADNF peptides. […]

[3] = stated without test; cited from earlier work
[4] = surviving E18 fetuses, SALLRSIPA 20 μg, combination 20 μg+20 μg

Substance | percentage of fetal demises [1] | alcohol toxicity as measured by fetal demises and weight (summary) [1] | alcohol-induced growth restriction ([2]; double dosage of NAPVSIPQ (40 μg), E18) | fetal weights (alcohol-induced growth restriction) [2, 4] | crossing of the blood brain barrier [3] | fetal brain weights (alcohol-induced fetal brain weight reduction) [2, 4]
NAPVSIPQ [Asn-Ala-Pro-Val-Ser-Ile-Pro-Gln] | prevented the demises seen with alcohol | moderately prevented alcohol toxicity | moderately prevented the alcohol-induced growth restriction | moderately prevented the alcohol-induced growth restrictions | cross the blood brain barrier | 
SALLRSIPA [Ser-Ala-Leu-Leu-Arg-Ser-Ile-Pro-Ala] | unable to bring the fetal demise rate to control levels | moderately prevented alcohol toxicity |  | did not prevent the alcohol-induced fetal weight reduction | cross the blood brain barrier | moderately prevented the alcohol-induced fetal brain weight reduction
vasoactive intestinal peptide (HSDAVFTDNYTRLRKQMAVKKYLNSILN; ends and bridges not checked; UniProt P01282 125-152, looked up) [VIP, neuropeptide that is a regulator of early postimplantation mouse embryonic growth, reference compound] | slightly improved the fetal demise rate |  |  | improved embryonic weights; however, the effect was intermediate |  | 
